Experimental data reported in patent US20120035265A1, “COMPOSITIONS, METHODS, AND DEVICES FOR THE TREATMENT OF DYSMENORRHEA” (MediciNova, Inc., priority 2010, published 2012).
Like-named read-outs stand apart in the source and are kept apart here.

System: uterine muscle isolated from pregnant rats
Experiment: Interaction of MN-221 and β-adrenoceptor antagonists on spontaneous contraction of uterine muscle isolated from pregnant rats (Schild regression)
Type: cell-based, rat
Conditions: Rattus norvegicus
Procedure: The experimental operation of this study was as reported by T. Kawarabayashi et al.^4. After each SD-strain rat on Day 21 of pregnancy was exsanguinated to death, the uterus was isolated to prepare 8 myometrial samples (about 4 mm×10 mm) in the direction of the longitudinal muscle, with the adhesion to the placenta being avoided. Each myometrial sample was suspended with a load of about 1.0 g in an organ bath containing 10 mL of the Locke-Ringer solution at 37° C. […] After the suspended samples became stable for the amplitude and frequency of spontaneous contraction, each antagonist or distilled water was added to the bath to pretreat them for about 15 minutes. […] The contractile force of each sample was outputted through a force displacement transducer to a strain pressure amplifier and recorded with a rectigraph.
Any variable point (peak) with amplitude (tension) of 0.2 g or lower was excluded from analysis. Samples meeting any of the following criteria were rejected or removed from analysis.
Microsoft® Excel 2000 (Microsoft Corp.) was used for summing up or calculating data and preparing figures and tables. […] This EC50 value was used to calculate the concentration ratio (CR) of EC50 when an antagonist was added (for each sample) to that when no antagonist was added (mean value of the whole control group) and the logarithmic value of CR-1 (log [CR-1]).
Then, the added concentration of the antagonist was plotted on the X axis (logarithmic value) and log(CR-1) on the Y axis (Schild plot) to calculate the value of the X-axis intercept (pA2) and slope of the line using linear approximation (Schild regression^5). The slope was statistically compared with a slope of 1 (paired t-test; a probability level of less than 5% was considered significant). […] The mean and standard error were calculated for each data point obtained and indicated to two decimal places (or in 3 significant digit).

SMILES: CN(C)C(=O)COc1ccc2c(c1)C[C@@H](NC[C@H](O)c1ccc(O)c(CCO)c1)CC2 [MN-221, (−)-bis(2-{[(2S)-2-({(2R)-2-hydroxy-2-[4-hydroxy-3-(2-hydroxyethyl)phenyl]ethyl}amino)-1,2,3,4-tetrahydronaphthalen-7-yl]oxy}-N,N-dimethyl-acetamide) monosulfate]
- EC50 (MN-221, control group (treated with distilled water), read-out: EC50): 0.843 ± 0.221 nM
- EC50 (MN-221, control group (treated with distilled water), read-out: pD2 (converted)): 0.676 nM
- EC50 (MN-221 after pretreatment with CGP 20712A 1 × 10^−8 mol/L, read-out: EC50): 0.868 ± 0.15 nM
- EC50 (MN-221 after pretreatment with CGP 20712A 1 × 10^−8 mol/L, read-out: pD2 (converted)): 0.692 nM
- EC50 (MN-221 after pretreatment with CGP 20712A 1 × 10^−9 mol/L, read-out: EC50): 1.25 ± 0.148 nM
- EC50 (MN-221 after pretreatment with CGP 20712A 1 × 10^−9 mol/L, read-out: pD2 (converted)): 1.15 nM
- EC50 (MN-221 after pretreatment with CGP 20712A 3 × 10^−9 mol/L, read-out: EC50): 1.05 ± 0.278 nM
- EC50 (MN-221 after pretreatment with CGP 20712A 3 × 10^−9 mol/L, read-out: pD2 (converted)): 0.692 nM
- EC50 (MN-221 after pretreatment with ICI 118,551 1 × 10^−8 mol/L, read-out: EC50): 23.1 ± 6.39 nM
- EC50 (MN-221 after pretreatment with ICI 118,551 1 × 10^−8 mol/L, read-out: pD2 (converted)): 16.6 nM
- EC50 (MN-221 after pretreatment with ICI 118,551 3 × 10^−8 mol/L, read-out: EC50): 50.9 ± 12.7 nM
- EC50 (MN-221 after pretreatment with ICI 118,551 3 × 10^−8 mol/L, read-out: pD2 (converted)): 28.8 nM
- EC50 (MN-221 after pretreatment with ICI 118,551 3 × 10^−9 mol/L, read-out: EC50): 4.6 ± 1.26 nM
- EC50 (MN-221 after pretreatment with ICI 118,551 3 × 10^−9 mol/L, read-out: pD2 (converted)): 2.95 nM
- EC50 (MN-221 after pretreatment with SR 59230A 1 × 10^−8 mol/L, read-out: EC50): 1.54 ± 1.08 nM
- EC50 (MN-221 after pretreatment with SR 59230A 1 × 10^−8 mol/L, read-out: pD2 (converted)): 0.447 nM
- EC50 (MN-221 after pretreatment with SR 59230A 3 × 10^−8 mol/L, read-out: EC50): 1.79 ± 0.499 nM
- EC50 (MN-221 after pretreatment with SR 59230A 3 × 10^−8 mol/L, read-out: pD2 (converted)): 1.07 nM
- EC50 (MN-221 after pretreatment with SR 59230A 3 × 10^−9 mol/L, read-out: EC50): 1.24 ± 0.338 nM
- EC50 (MN-221 after pretreatment with SR 59230A 3 × 10^−9 mol/L, read-out: pD2 (converted)): 0.955 nM
